{"source": "ChEMBL document CHEMBL5390201", "about": "“The Natural Alkaloid (-)-N-Hydroxyapiosporamide Suppresses Colorectal Tumor Progression as an NF-κB Pathway Inhibitor by Targeting the TAK1-TRAF6 Complex” (J Nat Prod, 2023)", "key": {"HCT-116 [1]": {"test_system": "HCT-116", "assay": "Induction of autophagic flux in human HCT-116 cells assessed as increase in LC3I to LC3II conversion preincubated with chloroquine for 1 hr followed by compound addition and measured after 24 hrs by Western blot analysis", "assay_type": "functional, cell-based"}, "Mus musculus [2]": {"test_system": "Mus musculus", "assay": "Anti-inflammatory activity in AOM/DSS-induced BALB/c mouse model inflammatory bowel disease assessed as reduction in colon length at 5 to 10 mg/kg, ip pretreated with AOM for 7 days further replaced with DSS for 7 days and repeated for 2 times followed by every 2 days compound treatment for […] starting from day 50 and measured once a week", "assay_type": "functional, organism-based", "details": "dose 5-10 mg/kg, time 21.0 day"}, "HT-29 [3]": {"test_system": "HT-29", "assay": "Induction of cell cycle arrest in human HT-29 cells assessed as decrease in CDK2 protein expression upto 10 uM incubated for 24 hrs by Western blot analysis", "assay_type": "functional, cell-based"}, "HT-29 [4]": {"test_system": "HT-29", "assay": "Induction of cell cycle arrest in human HT-29 cells assessed as accumulation of cells at S phase at 10 uM by RNase/PI staining based flow cytometry analysis (reference value: 39.34%)", "assay_type": "functional"}, "HCT-116 [5]": {"test_system": "HCT-116", "assay": "Induction of apoptosis in human HCT-116 cells assessed as late apoptotic cells at 1 uM incubated for 24 hrs by Annexin V-FITC/PI staining based flow cytometric analysis (reference value: 2.9 %)", "assay_type": "functional"}, "[6]": {"assay": "Toxicity in athymic nude BALB/c mouse xenografted with human HT-29 cells assessed as pathological changes in kidney at 5 to 15 mg/kg, ip administered every other day and measured after 14 days by hematoxylin and eosin staining-based microscopic analysis", "assay_type": "organism-based", "details": "in vivo, 336 h, dose 5-15 mg/kg, time 14 day"}, "HT-29 [7]": {"test_system": "HT-29", "assay": "Induction of apoptosis in human HT-29 cells assessed as increase in cleavage of PARP measured for 24 hrs by Western blot analysis", "assay_type": "functional, cell-based", "details": "dose 0-10 µM"}, "HT-29 [8]": {"test_system": "HT-29", "assay": "Induction of cell cycle arrest in human HT-29 cells assessed as accumulation of cells at S phase at 1 uM by RNase/PI staining based flow cytometry analysis (reference value: 39.34%)", "assay_type": "functional"}, "HT-29 [9]": {"test_system": "HT-29", "assay": "Induction of apoptosis in human HT-29 cells assessed as viable cells at 1 uM incubated for 24 hrs by Annexin V-FITC/PI staining based flow cytometric analysis (reference value: 93 %)", "assay_type": "functional", "details": "read-out: Activity"}, "[10]": {"target": "Nuclear factor NF-kappa-B complex (Homo sapiens) (UniProt Q00653+P19838+Q04206)", "sequence (P19838 whole entry, looked up)": "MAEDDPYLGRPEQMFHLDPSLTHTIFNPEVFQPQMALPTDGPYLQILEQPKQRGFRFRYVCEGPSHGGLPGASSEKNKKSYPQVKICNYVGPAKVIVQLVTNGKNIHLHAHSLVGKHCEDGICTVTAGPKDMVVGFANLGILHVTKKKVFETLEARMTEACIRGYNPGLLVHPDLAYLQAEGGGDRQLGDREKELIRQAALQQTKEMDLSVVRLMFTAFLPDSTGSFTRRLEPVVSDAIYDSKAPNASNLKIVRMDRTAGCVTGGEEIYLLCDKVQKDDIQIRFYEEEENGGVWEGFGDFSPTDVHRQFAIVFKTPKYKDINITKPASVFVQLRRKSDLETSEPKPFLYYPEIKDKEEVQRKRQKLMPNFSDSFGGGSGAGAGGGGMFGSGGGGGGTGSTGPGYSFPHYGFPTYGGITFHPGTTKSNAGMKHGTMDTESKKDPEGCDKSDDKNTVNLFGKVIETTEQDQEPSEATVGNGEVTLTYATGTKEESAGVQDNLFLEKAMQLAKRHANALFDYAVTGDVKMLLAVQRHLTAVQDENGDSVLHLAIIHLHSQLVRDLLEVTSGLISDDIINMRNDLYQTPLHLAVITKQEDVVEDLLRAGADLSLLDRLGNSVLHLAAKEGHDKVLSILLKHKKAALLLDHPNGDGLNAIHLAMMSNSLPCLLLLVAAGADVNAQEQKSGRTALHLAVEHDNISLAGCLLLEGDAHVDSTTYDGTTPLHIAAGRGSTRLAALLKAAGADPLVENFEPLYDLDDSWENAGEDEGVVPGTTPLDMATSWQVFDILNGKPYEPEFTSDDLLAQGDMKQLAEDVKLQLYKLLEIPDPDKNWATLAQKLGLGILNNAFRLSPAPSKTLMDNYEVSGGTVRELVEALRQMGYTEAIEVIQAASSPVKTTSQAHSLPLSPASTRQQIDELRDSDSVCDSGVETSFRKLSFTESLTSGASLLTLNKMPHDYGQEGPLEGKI", "sequence (Q00653 whole entry, looked up)": "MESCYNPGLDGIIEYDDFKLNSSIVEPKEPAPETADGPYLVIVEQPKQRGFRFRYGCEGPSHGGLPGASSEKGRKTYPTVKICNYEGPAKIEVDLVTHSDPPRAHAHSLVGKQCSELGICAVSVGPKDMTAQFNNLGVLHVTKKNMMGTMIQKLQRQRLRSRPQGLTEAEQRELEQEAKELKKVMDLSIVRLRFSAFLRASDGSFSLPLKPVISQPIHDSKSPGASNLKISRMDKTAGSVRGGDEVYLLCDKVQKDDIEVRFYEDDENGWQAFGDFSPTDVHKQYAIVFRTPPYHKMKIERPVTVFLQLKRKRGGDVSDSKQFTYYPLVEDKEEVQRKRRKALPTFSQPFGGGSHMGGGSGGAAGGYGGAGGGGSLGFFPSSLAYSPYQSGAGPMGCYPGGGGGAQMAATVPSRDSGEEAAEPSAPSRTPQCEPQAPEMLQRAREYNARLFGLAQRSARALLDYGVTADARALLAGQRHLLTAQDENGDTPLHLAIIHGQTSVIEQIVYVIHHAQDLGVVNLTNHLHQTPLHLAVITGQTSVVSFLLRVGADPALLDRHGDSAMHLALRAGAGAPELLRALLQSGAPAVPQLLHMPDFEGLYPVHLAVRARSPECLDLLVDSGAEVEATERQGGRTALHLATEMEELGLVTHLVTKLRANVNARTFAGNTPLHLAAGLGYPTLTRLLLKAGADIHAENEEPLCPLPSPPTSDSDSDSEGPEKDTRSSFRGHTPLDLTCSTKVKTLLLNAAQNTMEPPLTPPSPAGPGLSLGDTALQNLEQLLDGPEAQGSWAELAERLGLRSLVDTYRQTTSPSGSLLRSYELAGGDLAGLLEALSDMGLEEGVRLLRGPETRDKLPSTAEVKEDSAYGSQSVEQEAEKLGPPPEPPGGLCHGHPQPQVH", "sequence (Q04206 whole entry, looked up)": "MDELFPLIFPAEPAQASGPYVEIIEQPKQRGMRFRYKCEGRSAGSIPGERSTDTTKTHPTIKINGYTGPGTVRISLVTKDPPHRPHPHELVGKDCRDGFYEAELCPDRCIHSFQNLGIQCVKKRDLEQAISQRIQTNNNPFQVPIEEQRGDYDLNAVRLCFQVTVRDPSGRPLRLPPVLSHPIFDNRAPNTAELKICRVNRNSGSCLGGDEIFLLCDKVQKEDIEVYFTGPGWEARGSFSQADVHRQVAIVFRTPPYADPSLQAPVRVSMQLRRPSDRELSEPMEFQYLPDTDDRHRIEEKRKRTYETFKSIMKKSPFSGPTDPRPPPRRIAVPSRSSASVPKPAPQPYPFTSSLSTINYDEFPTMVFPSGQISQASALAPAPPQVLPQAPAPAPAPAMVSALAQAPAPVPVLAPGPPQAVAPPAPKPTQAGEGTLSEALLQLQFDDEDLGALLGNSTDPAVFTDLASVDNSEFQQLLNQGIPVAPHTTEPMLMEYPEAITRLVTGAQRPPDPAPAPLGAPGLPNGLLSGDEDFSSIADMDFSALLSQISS", "assay": "Inhibition of TNF-alpha induced NFkappaB activation in human HCT-116 cells assessed as inhibition of IkappaBalpha degradation at 1 to 10 uM pretreated for 24 hrs followed by TNFalpha stimulation for 10 mins by Western blot analysis", "assay_type": "cell-based", "details": "dose 1-10 µM, time 1450.0 min"}, "[11]": {"assay": "Cmax in Sprague-Dawley rat at 10 mg/kg, ip measured for 240 mins by HPLC-MS/MS analysis", "assay_type": "ADME, organism-based", "design": "time 240 min, dose 10 mg/kg, route ip", "details": "in vivo"}, "HT-29 [12]": {"test_system": "HT-29", "assay": "Induction of autophagic cell death in human HT-29 cells at 1 to 10 uM pretreated with chloroquine for 1 hr followed by compound addition and measured after 24 hrs by SRB assay", "assay_type": "functional, cell-based", "details": "dose 1-10 µM"}, "HCT-116 [13]": {"test_system": "HCT-116", "assay": "Induction of apoptosis in human HCT-116 cells assessed as early apoptotic cells at 5 uM incubated for 24 hrs by Annexin V-FITC/PI staining based flow cytometric analysis (reference value: 8.06 %)", "assay_type": "functional"}, "HCT-116 [14]": {"test_system": "HCT-116", "assay": "Induction of autophagy in human HCT-116 cells assessed as increase in LC3I to LC3II conversion at 1 to 10 uM incubated for 24 hrs by Western blotting analysis", "assay_type": "functional, cell-based", "details": "dose 1-10 µM"}, "Cell membrane": {"test_system": "Cell membrane", "assay": "Disruption of mitochondrial membrane potential in human HCT-116 cells at 0.25 to 10 uM measured after 24 hrs by JC-1 staining based flow cytometry analysis", "assay_type": "subcellular", "details": "dose 0.25-10 µM"}, "HCT-15": {"test_system": "HCT-15", "assay": "Cytotoxicity against human HCT-15 cells assessed as decrease in cell viability incubated for 48 hrs by SRB assay", "assay_type": "functional, cell-based", "details": "HCT-15, 48 h"}, "HCT-116 [15]": {"test_system": "HCT-116", "assay": "Antitumor activity against human HCT-116 cells xenografted in athymic nude BALB/c mouse assessed as reduction in tumor weight at 5 to 15 mg/kg, ip administered every other day and measured every other day for 16 days", "assay_type": "functional, organism-based", "details": "dose 5-15 mg/kg, time 16.0 day"}, "RAW264.7": {"test_system": "RAW264.7", "assay": "Inhibition of LPS-induced NFkappaB activation in mouse RAW264.7 cells assessed as inhibition of NO production preincubated for 24 hrs followed by LPS stimulation for 24 hrs", "assay_type": "cell-based", "details": "dose 0.125-1 µM, time 48.0 hrs"}, "[16]": {"assay": "Toxicity in athymic nude BALB/c mouse assessed as change in serum AST level at 5 to 15 mg/kg, ip administered every other day and measured after 14 days", "assay_type": "organism-based", "details": "in vivo, 336 h, dose 5-15 mg/kg, time 14 day"}, "HT-29 [17]": {"test_system": "HT-29", "assay": "Induction of apoptosis in human HT-29 cells assessed as inhibition of caspase 3 protein expression measured for 24 hrs by Western blot analysis", "assay_type": "functional, cell-based", "details": "dose 0-10 µM"}, "HT-29 [18]": {"test_system": "HT-29", "assay": "Antitumor activity against human HT-29 cells xenografted in athymic nude BALB/c mouse assessed as reduction in tumor weight at 5 to 15 mg/kg, ip administered every other day and measured every other day for 16 days", "assay_type": "functional, organism-based", "details": "dose 5-15 mg/kg, time 16.0 day"}, "HCT-116 [19]": {"test_system": "HCT-116", "assay": "Induction of apoptosis in human HCT-116 cells assessed as viable cells at 1 uM incubated for 24 hrs by Annexin V-FITC/PI staining based flow cytometric analysis (reference value: 88.8%)", "assay_type": "functional", "details": "read-out: Activity"}, "HT-29 [20]": {"test_system": "HT-29", "assay": "Induction of apoptosis in human HT-29 cells assessed as necrotic cells at 5 uM preincubated with Z-VAD-FMK for 1 hr followed by compound addition and measured after 24 hrs by Annexin V-FITC/PI staining based flow cytometric analysis (reference value: 0.4 %)", "assay_type": "functional"}, "[21]": {"assay": "Toxicity in athymic nude BALB/c mouse xenografted with human HCT-116 cells assessed as pathological changes in lungs at 5 to 15 mg/kg, ip administered every other day and measured after 14 days by hematoxylin and eosin staining-based microscopic analysis", "assay_type": "organism-based", "details": "in vivo, 336 h, dose 5-15 mg/kg, time 14 day"}, "[22]": {"assay": "Toxicity in athymic nude BALB/c mouse assessed as change in serum ALT level at 5 to 15 mg/kg, ip administered every other day and measured after 14 days", "assay_type": "organism-based", "details": "in vivo, 336 h, dose 5-15 mg/kg, time 14 day"}, "Mus musculus [23]": {"test_system": "Mus musculus", "assay": "Anti-inflammatory activity in AOM/DSS-induced BALB/c mouse model inflammatory bowel disease assessed as reduction in tumor length at 5 to 10 mg/kg, ip pretreated with AOM for 7 days further replaced with DSS for 7 days and repeated for 2 times followed by every 2 days compound treatment for […] starting from day 50 and measured once a week", "assay_type": "functional, organism-based", "details": "dose 5-10 mg/kg, time 21.0 day"}, "HT-29 [24]": {"test_system": "HT-29", "assay": "Induction of apoptosis in human HT-29 cells assessed as viable cells at 5 uM preincubated with Z-VAD-FMK for 1 hr followed by compound addition and measured after 24 hrs by Annexin V-FITC/PI staining based flow cytometric analysis (reference value: 88.5 %)", "assay_type": "functional", "details": "read-out: Activity"}, "HT-29 [25]": {"test_system": "HT-29", "assay": "Induction of cell cycle arrest in human HT-29 cells assessed as accumulation of cells at G0/G1 phase at 10 uM by RNase/PI staining based flow cytometry analysis (reference value: 50.73 %)", "assay_type": "functional"}, "HCT-116 [26]": {"test_system": "HCT-116", "assay": "Induction of autophagy in human HCT-116 cells assessed as increase in LC3 protein expression at 1 to 10 uM incubated for 24 hrs by Western blot analysis", "assay_type": "functional, cell-based", "details": "dose 1-10 µM"}, "[27]": {"assay": "Toxicity in athymic nude BALB/c mouse xenografted with human HCT-116 cells assessed as pathological changes in spleen at 5 to 15 mg/kg, ip administered every other day and measured after 14 days by hematoxylin and eosin staining-based microscopic analysis", "assay_type": "organism-based", "details": "in vivo, 336 h, dose 5-15 mg/kg, time 14 day"}}, "note": "The source made the active and inactive calls. The rule behind the calls is not given here."}
{"smiles": "C[C@@H]1CC[C@H]2[C@H](C(=O)c3c(O)c([C@@]4(O)CC[C@@H](O)[C@H]5O[C@H]54)cn(O)c3=O)[C@H](C)C=C[C@@H]2C1", "values": [{"measurement": "Activity", "setting": "HCT-116 [1]", "result": "Active"}, {"measurement": "Activity", "setting": "Mus musculus [2]", "result": "Active"}, {"measurement": "Activity", "setting": "HT-29 [3]", "result": "Active"}, {"measurement": "Activity", "setting": "HT-29 [4]", "result": 26.65, "unit": "%"}, {"measurement": "Activity", "setting": "HCT-116 [5]", "result": 47, "unit": "%"}, {"measurement": "Activity", "setting": "[6]", "result": "Non-Toxic"}, {"measurement": "Activity", "setting": "HT-29 [7]", "result": "Dose-Dependent Effect"}, {"measurement": "Activity", "setting": "HT-29 [8]", "result": 23.75, "unit": "%"}, {"measurement": "viability at 1 µM", "setting": "HT-29 [9]", "result": 44.8, "unit": "%"}, {"measurement": "inhibition", "setting": "[10]", "result": "Active"}, {"measurement": "Cmax", "setting": "[11]", "result": 4590, "unit": "ng/mL"}, {"measurement": "Activity", "setting": "HT-29 [12]", "result": "inactive"}, {"measurement": "Activity", "setting": "HCT-116 [13]", "result": 5.47, "unit": "%"}, {"measurement": "Activity", "setting": "HCT-116 [14]", "result": "Active"}, {"measurement": "Activity", "setting": "Cell membrane", "result": "Active"}, {"measurement": "IC50", "setting": "HCT-15", "result": 570, "unit": "nM"}, {"measurement": "Activity", "setting": "HCT-116 [15]", "result": "Active"}, {"measurement": "inhibition", "setting": "RAW264.7", "result": "Dose-Dependent Effect"}, {"measurement": "Activity", "setting": "[16]", "result": "Non-Toxic"}, {"measurement": "Activity", "setting": "HT-29 [17]", "result": "Dose-Dependent Effect"}, {"measurement": "Activity", "setting": "HT-29 [18]", "result": "Active"}, {"measurement": "viability at 1 µM", "setting": "HCT-116 [19]", "result": 32, "unit": "%"}, {"measurement": "Activity", "setting": "HT-29 [20]", "result": 0.15, "unit": "%"}, {"measurement": "Activity", "setting": "[21]", "result": "Non-Toxic"}, {"measurement": "Activity", "setting": "[22]", "result": "Non-Toxic"}, {"measurement": "Activity", "setting": "Mus musculus [23]", "result": "Active"}, {"measurement": "viability at 5 µM", "setting": "HT-29 [24]", "result": 65.5, "unit": "%"}, {"measurement": "Activity", "setting": "HT-29 [25]", "result": 72.58, "unit": "%"}, {"measurement": "Activity", "setting": "HCT-116 [26]", "result": "Active"}, {"measurement": "Activity", "setting": "[27]", "result": "Non-Toxic"}]}
